# Results taken from patent US7019109B2, “SSTR1-selective analogs” (The Salk Institute for Bilogical Studies, priority 2001, dated 2006).
# Read-outs that look alike come from different tables or passages of the source. *1 amine or outer side, *2 acyl side, *3 side chain or, on linkers, in order; H or OH if unused. Where a SMILES comes first, the peptide text is derived from it. Bridges are numbered along the chain shown (N, C = ends). [ ]: non-standard residue; d: D form. The star is where a group is joined. NMePhe(4-CH2NHiPr) = CN[C@@H](Cc1ccc(CNC(C)C)cc1)C(=O)O; Tyr(Nα-carbamoyl) = NC(=O)N[C@@H](Cc1ccc(O)cc1)C(=O)*; Phe(4-CH2NHiPr) = CC(C)NCc1ccc(C[C@H](N)C(=O)O)cc1; Tyr(3-I) = N[C@@H](Cc1ccc(O)c(I)c1)C(=O)O; X3 = NC(=O)N[C@@H](Cc1ccc(O)c(I)c1)C(=O)*; X1 = NC(=O)N[C@@H](CS[*:2])C(=O)[*:1]; d2Nal = N[C@H](Cc1ccc2ccccc2c1)C(=O)O; X2 = NC(=O)N[C@H](CS[*:2])C(=O)[*:1]; NMeS = CN[C@@H](CO)C(=O)O
# Columns and labels:
# Type in all cases: binding
# [1] = molecular target: T1, human SSTR1 (Homo sapiens, UniProt P30872); assay: Displacement of 125I-[Leu8,D-Trp22,Tyr25]-SRIF-28 from cloned SSTR1 (receptor autoradiography)
# T1 construct: expressed in transfected cells; host or cells: CHO-K1 cells and CCL39 cells
# Description: (§1) Generally, recombinant cells expressing the receptor are washed and homogenized to prepare a crude protein homogenate that is frozen, embedded and then cut in 10–20 μm thin sections, as known in this art. Candidate substances, such as potential SRIF agonists and antagonists, are incubated with the tissue sections, and the interaction between the candidate substance and the receptor polypeptide is monitored.
# (§2) Receptor binding assays are performed on cloned SRIF receptors as generally set forth in Reubi, J. C. et al., J. Clin. Endocrinol. […] Med. 2000, 27, 273–282.
# (§3) In vitro Bioassay: The various somatostatin analogs are tested in vitro for their ability to bind to isolated cloned receptors expressed on CHO-K1 cells and CCL39 cells. CHO-K1 cells are grown in Ham's F-12 medium, and CCL39 cells are grown in Dulbecco's modified Eagle's medium/Ham's F-12(1:1) mix, supplemented with 10% fetal bovine serum, 100 U/ml penicillin and 100 μg/ml streptomycin, in humidified air containing 5% CO2 at 37° C.
# (§4) Cells are washed and prepared to produce homogenates as described in detail in Reubi, J. C. et al, Eur. J. Nucl. Med. 2000, 27, 273–282.
# (§5) Receptor autoradiography is performed on 20 μm thick cryostat sections of the membrane pellets, mounted on microscope slides, and then stored at −20° C. […] Increasing concentrations of the unlabeled peptide are used ranging from 0.1–1000 nM. […] IC50 values are calculated after quantification of the data using a computer-assisted image processing system as known in this art.
# [2] = molecular target: T2, human SSTR2 (Homo sapiens, UniProt P30874); assay: Displacement of 125I-[Leu8,D-Trp22,Tyr25]-SRIF-28 from cloned SSTR2 (receptor autoradiography); conditions: read-out: IC50 (nM) mSSTR2
# T2 construct: expressed in transfected cells; host or cells: CHO-K1 cells and CCL39 cells
# Description: as §1, §2, §3, §4
# (§6) Receptor autoradiography is performed on 20 μm thick cryostat sections of the membrane pellets, mounted on microscope slides, and then stored at −20° C. […] […] […] IC50 values are calculated after quantification of the data using a computer-assisted image processing system as known in this art.
# [3] = molecular target: T3, human SSTR3 (Homo sapiens, UniProt P32745); assay: Displacement of 125I-[Leu8,D-Trp22,Tyr25]-SRIF-28 from cloned SSTR3 (receptor autoradiography); conditions: read-out: IC50 (nM) mSSTR3
# T3 construct: expressed in transfected cells; host or cells: CHO-K1 cells and CCL39 cells
# Description: as §1, §2, §3, §4, §5
# [4] = molecular target: T4, human SSTR4 (Homo sapiens, UniProt P31391); assay: Displacement of 125I-[Leu8,D-Trp22,Tyr25]-SRIF-28 from cloned SSTR4 (receptor autoradiography); conditions: read-out: IC50 (nM) mSSTR4
# T4 construct: expressed in transfected cells; host or cells: CHO-K1 cells and CCL39 cells
# Description: as §1, §2, §3, §4, §5
# [5] = molecular target: T5, human SSTR5 (Homo sapiens, UniProt P35346); assay: Displacement of 125I-[Leu8,D-Trp22,Tyr25]-SRIF-28 from cloned SSTR5 (receptor autoradiography); conditions: read-out: IC50 (nM) mSSTR5
# T5 construct: expressed in transfected cells; host or cells: CHO-K1 cells and CCL39 cells
# Description: as §1, §2, §3, §4, §6
# [6] = displacement of iodinated SRIF-28 radioligand, read-out: IC50 / binding affinity at human SSTR1
# [7] = inhibition of radioligand binding of 125I-[Leu8,D-Trp22,Tyr24]SRIF-28, cloned receptor, table, read-out: IC50 (nM) mSSTR1
# [8] = unit inferred, read-out: IC50 / binding affinity at SSTR1, unit inferred
# [9] = inhibition of radioligand binding of 125I-[Leu8,D-Trp22,Tyr24]SRIF-28, cloned receptor, table
# T4 sequence (P31391 whole entry): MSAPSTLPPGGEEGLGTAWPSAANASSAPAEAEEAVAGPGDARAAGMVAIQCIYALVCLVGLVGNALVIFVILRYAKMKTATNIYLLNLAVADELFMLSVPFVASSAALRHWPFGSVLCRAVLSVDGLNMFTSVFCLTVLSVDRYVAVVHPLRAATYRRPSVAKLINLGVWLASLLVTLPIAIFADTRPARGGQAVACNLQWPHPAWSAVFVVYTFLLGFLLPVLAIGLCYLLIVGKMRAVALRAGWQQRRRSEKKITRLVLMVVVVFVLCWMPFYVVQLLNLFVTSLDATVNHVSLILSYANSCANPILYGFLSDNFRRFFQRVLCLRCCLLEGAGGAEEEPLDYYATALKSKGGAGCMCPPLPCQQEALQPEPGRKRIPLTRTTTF
# T1 sequence (P30872 whole entry): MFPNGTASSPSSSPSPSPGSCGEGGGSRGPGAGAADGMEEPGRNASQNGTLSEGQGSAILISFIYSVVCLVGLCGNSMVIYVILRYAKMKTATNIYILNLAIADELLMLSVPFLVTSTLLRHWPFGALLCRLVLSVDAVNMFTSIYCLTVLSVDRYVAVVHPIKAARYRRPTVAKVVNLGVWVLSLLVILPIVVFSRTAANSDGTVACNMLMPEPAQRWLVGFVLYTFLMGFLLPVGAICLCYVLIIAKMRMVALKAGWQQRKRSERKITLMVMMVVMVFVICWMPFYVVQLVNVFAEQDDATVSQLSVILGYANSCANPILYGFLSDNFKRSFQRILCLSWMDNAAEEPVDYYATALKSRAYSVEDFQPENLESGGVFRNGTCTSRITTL
# T3 sequence (P32745 whole entry): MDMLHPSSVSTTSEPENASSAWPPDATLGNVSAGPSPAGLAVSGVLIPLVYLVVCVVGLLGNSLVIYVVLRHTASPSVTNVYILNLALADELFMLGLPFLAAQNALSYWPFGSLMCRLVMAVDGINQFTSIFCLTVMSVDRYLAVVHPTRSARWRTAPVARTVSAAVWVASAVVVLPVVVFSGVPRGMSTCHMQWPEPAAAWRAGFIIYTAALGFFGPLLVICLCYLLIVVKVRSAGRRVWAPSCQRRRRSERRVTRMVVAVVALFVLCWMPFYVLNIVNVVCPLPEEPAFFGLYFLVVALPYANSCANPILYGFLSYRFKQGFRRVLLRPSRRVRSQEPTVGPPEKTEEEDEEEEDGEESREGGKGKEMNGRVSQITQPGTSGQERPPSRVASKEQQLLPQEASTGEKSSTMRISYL
# T2 sequence (P30874 whole entry): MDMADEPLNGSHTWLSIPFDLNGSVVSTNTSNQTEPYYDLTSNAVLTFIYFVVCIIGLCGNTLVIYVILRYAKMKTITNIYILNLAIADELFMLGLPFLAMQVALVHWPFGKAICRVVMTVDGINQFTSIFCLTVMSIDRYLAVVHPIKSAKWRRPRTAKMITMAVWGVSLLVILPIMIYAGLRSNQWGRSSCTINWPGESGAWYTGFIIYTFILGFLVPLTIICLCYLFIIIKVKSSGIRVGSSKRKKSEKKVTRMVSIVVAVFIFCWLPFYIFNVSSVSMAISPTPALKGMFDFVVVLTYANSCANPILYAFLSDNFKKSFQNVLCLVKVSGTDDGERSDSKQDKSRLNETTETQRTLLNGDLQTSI
# T5 sequence (P35346 whole entry): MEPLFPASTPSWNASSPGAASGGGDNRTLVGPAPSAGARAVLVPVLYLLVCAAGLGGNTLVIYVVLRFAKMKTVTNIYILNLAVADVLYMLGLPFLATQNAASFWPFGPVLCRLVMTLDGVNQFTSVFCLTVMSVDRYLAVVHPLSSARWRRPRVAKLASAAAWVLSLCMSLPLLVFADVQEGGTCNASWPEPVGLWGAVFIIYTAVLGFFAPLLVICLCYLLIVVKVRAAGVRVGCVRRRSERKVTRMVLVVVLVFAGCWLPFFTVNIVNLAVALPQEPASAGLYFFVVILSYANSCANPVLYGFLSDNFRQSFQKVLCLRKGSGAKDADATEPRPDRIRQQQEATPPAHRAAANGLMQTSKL
SMILES,"IC50 [1, 6]",IC50 [2],IC50 [3],IC50 [4],IC50 [5],"IC50 [1, 7]","IC50 [1, 8]","IC50 [4, 9]"
"CC(C)NCc1ccc(C[C@@H]2NC(=O)[C@@H](Cc3c[nH]c4ccccc34)NC(=O)[C@H](Cc3ccccc3)NC(=O)[C@H](Cc3ccccc3)NC(=O)[C@H](CCCCN)NC(=O)[C@@H](NC(N)=O)CSSC[C@@H](C(=O)O)NC(=O)[C@H](CO)NC(=O)[C@H]([C@@H](C)O)NC(=O)[C@H](Cc3ccc(O)cc3)NC(=O)[C@H]([C@@H](C)O)NC2=O)cc1 [Peptide No. 12A, (cyclo)CbmCys-Lys-Phe-Phe-D-Trp-IAmp-Thr-Tyr-Thr-Ser-Cys-OH] (KFF[dW][Phe(4-CH2NHiPr)]TYTSC-OH; linker N-10 via X1)",8.1 nM,> 10000 nM,> 1000 nM,> 1000 nM,> 1000 nM,,,
"CC(C)NCc1ccc(C[C@@H]2NC(=O)[C@@H](Cc3c[nH]c4ccccc34)NC(=O)[C@H](Cc3ccccc3)NC(=O)[C@H](Cc3ccccc3)NC(=O)[C@H](CCCCN)NC(=O)[C@H](NC(N)=O)CSSC[C@@H](C(=O)O)NC(=O)[C@H](CO)NC(=O)[C@H]([C@@H](C)O)NC(=O)[C@H](Cc3ccc(O)cc3)NC(=O)[C@H]([C@@H](C)O)NC2=O)cc1 [Peptide No. 12C, (cyclo)CbmD-Cys-Lys-Phe-Phe-D-Trp-IAmp-Thr-Tyr-Thr-Ser-Cys-OH] (KFF[dW][Phe(4-CH2NHiPr)]TYTSC-OH; linker N-10 via X2)",,> 10000 nM,> 1000 nM,> 10000 nM,> 1000 nM,17.4 nM,,
"CC(C)NCc1ccc(C[C@H]2C(=O)N[C@@H]([C@@H](C)O)C(=O)N[C@@H](Cc3ccc(O)c(I)c3)C(=O)N[C@@H]([C@@H](C)O)C(=O)N[C@@H](CO)C(=O)N[C@H](C(=O)O)CSSC[C@H](NC(N)=O)C(=O)N[C@@H](CCCCN)C(=O)N[C@@H](Cc3ccccc3)C(=O)N[C@@H](Cc3ccccc3)C(=O)N[C@H](Cc3c[nH]c4ccccc34)C(=O)N2C)cc1 [Peptide No. 12D, (cyclo)CbmCys-Lys-Phe-Phe-D-Trp-N^αMeIAmp-Thr-ITyr-Thr-Ser-Cys-OH] (KFF[dW][NMePhe(4-CH2NHiPr)]T[Tyr(3-I)]TSC-OH; linker N-10 via X1)",,> 1000 nM,> 1000 nM,700 nM,> 1000 nM,8.5 nM,,
"CC(C)NCc1ccc(C[C@H]2C(=O)N[C@@H]([C@@H](C)O)C(=O)N[C@@H](Cc3ccccc3)C(=O)N[C@@H]([C@@H](C)O)C(=O)N[C@@H](CO)C(=O)N[C@H](C(=O)O)CSSC[C@H](N)C(=O)N[C@@H](CCCCN)C(=O)N[C@@H](Cc3ccccc3)C(=O)N[C@@H](Cc3ccccc3)C(=O)N[C@H](Cc3c[nH]c4ccccc34)C(=O)N2C)cc1 [Peptide No. 13, (cyclo)H-Cys-Lys-Phe-Phe-D-Trp-N^αMeIAmp-Thr-Phe-Thr-Ser-Cys-OH] (H-CKFF[dW][NMePhe(4-CH2NHiPr)]TFTSC-OH; disulfide 1-11)",~8.7 nM,> 10000 nM,610 nM,200 nM,> 10000 nM,8.7 nM,,
"CC(C)NCc1ccc(C[C@@H]2NC(=O)[C@@H](Cc3c[nH]c4ccccc34)NC(=O)[C@H](Cc3ccccc3)NC(=O)[C@H](Cc3ccccc3)NC(=O)[C@H](CCCCN)NC(=O)[C@@H](NC(=O)[C@H](Cc3ccc(O)cc3)NC(N)=O)CSSC[C@@H](C(=O)O)NC(=O)[C@H](CO)NC(=O)[C@H]([C@@H](C)O)NC(=O)[C@H](Cc3ccccc3)NC(=O)[C@H]([C@@H](C)O)NC2=O)cc1 [Peptide No. 14A, (cyclo)CbmTyr-Cys-Lys-Phe-Phe-D-Trp-IAmp-Thr-Phe-Thr-Ser-Cys-OH] ({Tyr(Nα-carbamoyl)}-CKFF[dW][Phe(4-CH2NHiPr)]TFTSC-OH; disulfide 1-11)",,> 10000 nM,500 nM,,> 1000 nM,,15 nM,> 1000 nM
CC(C)NCc1ccc(C[C@@H]2NC(=O)[C@@H](Cc3c[nH]c4ccccc34)NC(=O)[C@H](Cc3ccccc3)NC(=O)[C@H](Cc3ccccc3)NC(=O)[C@H](CCCCN)NC(=O)[C@@H](NC(=O)[C@H](Cc3ccc(O)c(I)c3)NC(N)=O)CSSC[C@@H](C(=O)O)NC(=O)[C@H](CO)NC(=O)[C@H]([C@@H](C)O)NC(=O)[C@H](Cc3ccccc3)NC(=O)[C@H]([C@@H](C)O)NC2=O)cc1 [Peptide No. 14B] (X3-CKFF[dW][Phe(4-CH2NHiPr)]TFTSC-OH; disulfide 1-11),,> 1000 nM,290 nM,> 1000 nM,> 1000 nM,34.7 nM,,
"CC(C)NCc1ccc(C[C@@H]2NC(=O)[C@@H](Cc3c[nH]c4ccccc34)NC(=O)[C@H](Cc3ccccc3)NC(=O)[C@H](Cc3ccccc3)NC(=O)[C@H](CCCCN)NC(=O)[C@H](NC(=O)[C@H](Cc3ccc(O)cc3)NC(N)=O)CSSC[C@@H](C(=O)O)NC(=O)[C@H](CO)NC(=O)[C@H]([C@@H](C)O)NC(=O)[C@H](Cc3ccccc3)NC(=O)[C@H]([C@@H](C)O)NC2=O)cc1 [Peptide No. 14C, (cyclo)CbmTyr-D-Cys-Lys-Phe-Phe-D-Trp-IAmp-Thr-Phe-Thr-Ser-Cys-OH] ({Tyr(Nα-carbamoyl)}-[dC]KFF[dW][Phe(4-CH2NHiPr)]TFTSC-OH; disulfide 1-11)",,> 10000 nM,> 1000 nM,,> 1000 nM,33 nM,,487 nM
"CC(C)NCc1ccc(C[C@H]2C(=O)N[C@@H]([C@@H](C)O)C(=O)N[C@@H](Cc3ccccc3)C(=O)N[C@@H]([C@@H](C)O)C(=O)N[C@@H](CO)C(=O)N[C@H](C(=O)O)CSSC[C@H](N)C(=O)N[C@@H](CCCCN)C(=O)N[C@@H](Cc3ccccc3)C(=O)N[C@@H](Cc3ccccc3)C(=O)N[C@H](Cc3ccc4ccccc4c3)C(=O)N2C)cc1 [Peptide No. 15, (cyclo)H-Cys-Lys-Phe-Phe-D-2Nal-N^αMeIAmp-Thr-Phe-Thr-Ser-Cys-OH] (H-CKFF[d2Nal][NMePhe(4-CH2NHiPr)]TFTSC-OH; disulfide 1-11)",,> 1000 nM,> 1000 nM,> 1000 nM,> 10000 nM,43 nM,~32.5 nM,
"CC(C)NCc1ccc(C[C@H]2C(=O)N[C@@H]([C@@H](C)O)C(=O)N[C@@H](Cc3ccc(O)cc3)C(=O)N[C@@H]([C@@H](C)O)C(=O)N[C@@H](CO)C(=O)N[C@H](C(=O)O)CSSC[C@H](NC(N)=O)C(=O)N[C@@H](CCCCN)C(=O)N[C@@H](Cc3ccccc3)C(=O)N[C@@H](Cc3ccccc3)C(=O)N[C@H](Cc3ccc4ccccc4c3)C(=O)N2C)cc1 [Peptide No. 16, (cyclo)CbmCys-Lys-Phe-Phe-D-2Nal-N^αMeIAmp-Thr-Tyr-Thr-Ser-Cys-OH] (KFF[d2Nal][NMePhe(4-CH2NHiPr)]TYTSC-OH; linker N-10 via X1)",,> 10000 nM,> 1000 nM,> 10000 nM,> 10000 nM,32 nM,~32 nM,
"CC(C)NCc1ccc(C[C@@H]2NC(=O)[C@@H](Cc3c[nH]c4ccccc34)NC(=O)[C@H](Cc3ccccc3)NC(=O)[C@H](Cc3ccccc3)NC(=O)[C@H](CCCCN)NC(=O)[C@@H](N)CSSC[C@@H](C(=O)O)NC(=O)[C@H](CO)N(C)C(=O)[C@H]([C@@H](C)O)NC(=O)[C@H](Cc3ccccc3)NC(=O)[C@H]([C@@H](C)O)NC2=O)cc1 [Peptide No. 22A, (cyclo)H-Cys-Lys-Phe-Phe-D-Trp-IAmp-Thr-Phe-Thr-N^αMeSer-Cys-OH] (H-CKFF[dW][Phe(4-CH2NHiPr)]TFT[NMeS]C-OH; disulfide 1-11)",,> 10000 nM,600 nM,> 1000 nM,> 1000 nM,25 nM,,
